These results are taken from patent US20070225344A1, “Sulfonamide derivatives to treat infection with hepatitis C virus” (priority 2006, published 2007).

Molecules are shown by their SMILES.

T1 sequence (P26663 2420-2997, looked up, natural form): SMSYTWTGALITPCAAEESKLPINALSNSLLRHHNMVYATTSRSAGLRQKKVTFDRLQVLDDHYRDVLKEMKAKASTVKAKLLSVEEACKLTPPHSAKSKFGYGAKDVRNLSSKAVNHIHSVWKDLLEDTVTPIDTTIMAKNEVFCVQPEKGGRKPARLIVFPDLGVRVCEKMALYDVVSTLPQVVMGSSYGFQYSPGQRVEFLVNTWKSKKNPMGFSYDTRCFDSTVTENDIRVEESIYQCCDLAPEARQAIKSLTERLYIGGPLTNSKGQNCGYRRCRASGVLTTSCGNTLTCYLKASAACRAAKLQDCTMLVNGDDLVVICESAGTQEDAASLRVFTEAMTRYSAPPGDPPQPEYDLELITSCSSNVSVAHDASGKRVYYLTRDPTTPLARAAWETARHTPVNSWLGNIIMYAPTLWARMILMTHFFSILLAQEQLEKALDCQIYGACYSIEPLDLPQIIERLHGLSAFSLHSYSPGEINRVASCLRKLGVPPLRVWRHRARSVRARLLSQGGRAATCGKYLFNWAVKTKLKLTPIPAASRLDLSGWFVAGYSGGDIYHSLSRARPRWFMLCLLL

One data set has as its target T1, HCV RdRp NS5B d21BK (BK strain, 1b subtype) (Hepatitis C virus genotype 1b, UniProt P26663).
T1 construct: NS5B from the BK strain (1b subtype) is expressed in E. coli as a protein in which the 21 C-terminal amino acids are replaced; made in house; host or cells: E. coli
In words: HCV polymerase (NS5B) RNA-dependent RNA polymerase inhibition, 33P-GTP filter assay. The note with it: in vitro; NS5B BK strain (1b subtype), 24 nM enzyme, 2 h at room temperature; read-out: HCV Polymerase Median IC50. The class given is biochemical. From the text: The ability of the compounds of the present invention to inhibit hepatitis C polymerase was established by the following experimental procedure:
NS5B from the BK strain (1b subtype) is expressed in E. coli as a protein in which the 21 C-terminal amino acids are replaced with a short linker and a hexahistidine tag (GSHHHHHH). The purified protein is mixed with radioactive nucleotides and allowed to replicate a heteropolymeric RNA substrate, primed by an endogenous short hairpin, resulting in an approximately 760 nt product. The radioactive product is captured on a filter and quantitated after removal of the unincorporated nucleotides.
(1) Compounds 10 μl at 10 μg/ml in 15% DMSO
Add 20 μl enzyme mix into each well of the assay plate. Incubate compound and enzyme at room temperature for 15 minutes.
(3) Template Mix—Prepare Ahead.
Spin down a tube of RNA (5 μg/tube stored in 75% ethanol and 0.3 M sodium acetate) in a microcentrifuge for 20 min. at 4° C. One tube is enough for 1 to 1½ plates. Remove as much ethanol from the tube as possible by inverting the tube. Be gentle, pellet RNA may not adhere to the tube. Vacuum dry the RNA. Resuspend the RNA by adding 1 ml of DEPC water, close the cap of the tube tightly. To dissolve RNA, incubate RNA solution on ice for ˜60 min. and gently vortex. Spin briefly to ensure all RNA solution is down to the bottom of the tube before opening cap. Gently transfer RNA solution into a 5 ml or larger tube. Add another 3 ml of DEPC water (total 4 ml of volume).
Add the following volumes of reagents.
Add 20 μl template mix per reaction (i.e. 20 ng of POF per reaction or ˜3 nM)
(4) Incubate reaction at room temperature (22-25° C.) for 2 hours.
(5) Stop reaction by adding 50 μl of 170 mM EDTA.
Final concentration of EDTA is 85 mM.
(6) Prewet filters of Millipore Multiscreen filter plate by adding 200 μl of 0.5 M sodium phosphate buffer, pH 7.0 into each well. Let stand at room temperature for 2-3 min.
(7) Place the Multiscreen filter plate onto a Millipore Manifold and turn on vacuum to allow buffer to flow through. Turn off vacuum. Transfer 80 μl of the reaction product into each well of the filter plate. Let stand for 2-3 min. Turn on vacuum to filter reaction product.
(8) Turn off vacuum. Add 200 μl of 0.5 M sodium phosphate buffer, pH 7.0 into each well to wash filter. Turn on vacuum.
Repeat step (8) three more times.
(9) Remove polypropylene bottom. Spot dry filter at the bottom with paper towel. Air dry filter plate on a bench for 1 hr. Add 40 μl Super Mix scintillant. Seal top of the plate with a tape. Place plate into a Packard carrier or MicroBeta carrier.
(10) Count plate using a Packard Topcount or MicroBeta counter. Program 10 for ^33P in Top count or ^33P program in micro-beta.
Percent inhibition is calculated after background subtraction as a percent reduction of activity relative to the positive control (average value of the plate excluding the negative controls).
A word on the IC50: it is the concentration at which inhibition is half-maximal. In the case of `O=C(O)[C@@H]1CCCN1S(=O)(=O)c1cc(Cl)cc(Cl)c1O` [Example 11, 1-[(3,5-dichloro-2-hydroxyphenyl)sulfonyl]-L-proline], the IC50 amounted to 0.89 µM. Still for that read-out and setting: the same measure for `Cc1cc(S(=O)(=O)N2CSC[C@H]2C(=O)O)c(N)cc1Cl` [Example 54, (4R)-3-[(2-amino-4-chloro-5-methylphenyl)sulfonyl]-1,3-thiazolidine-4-carboxylic acid]: 4.75 µM.

On to `Cc1cc(S(=O)(=O)N2CSC[C@@H]2C(=O)O)c(N)cc1Cl` [Example 55, (4S)-3-[(2-amino-4-chloro-5-methylphenyl)sulfonyl]-1,3-thiazolidine-4-carboxylic acid], for which the IC50 was 7.5 µM.

Regarding `O=C(O)[C@@H]1CSCN1S(=O)(=O)c1cc(Cl)cc(Br)c1O` [Example 56, (4R)-3-[(3-bromo-5-chloro-2-hydroxyphenyl)sulfonyl]-1,3-thiazolidine-4-carboxylic acid], the IC50 was 11.2 µM.

Take `O=C(O)[C@H]1CSCN1S(=O)(=O)c1cc(F)cc(Cl)c1O` [Example 57, (4S)-3-[(3-chloro-5-fluoro-2-hydroxyphenyl)sulfonyl]-1,3-thiazolidine-4-carboxylic acid]: the IC50 stood at 14.4 µM. As for `Cc1cc(N)c(S(=O)(=O)N2CSC[C@H]2C(=O)O)cc1Cl` [Example 58, (4R)-3-[(2-amino-5-chloro-4-methylphenyl)sulfonyl]-1,3-thiazolidine-4-carboxylic acid], the IC50 was 1.98 µM.

Test system in a further data set: not given
Assay: not given
Details: not given
By melting point is commonly meant the temperature, or range, at which the solid turns liquid. The molecule `O=C(O)[C@@H]1CCCN1S(=O)(=O)c1cc(Cl)cc(Cl)c1O` [Example 11, 1-[(3,5-dichloro-2-hydroxyphenyl)sulfonyl]-L-proline] registered a melting point of 107.4 °C.
